Data: publication PMC4480820, “Modafinil and its metabolites enhance the anticonvulsant action of classical antiepileptic drugs in the mouse maximal electroshock-induced seizure model” (Psychopharmacology, 2015)
Read-outs that look alike come from different tables or passages of the source.

Key:
[1] = test system: threshold for electroconvulsions in mice; assay: Maximal electroshock seizure threshold (MEST) test; conditions: for TID20 (dose that increases threshold by 20 %): i.p., 30 min before test, from linear regression of dose vs threshold increase
[2] = test system: passive avoidance performance in mice; assay: Step-through passive avoidance task; type: in vivo, Swiss mice; conditions: median (25th; 75th percentiles), observed up to 180 s
Procedure: The effects of combinations of modafinil (50 mg kg^−1), its metabolites (50 mg kg^−1), or GBR 12909 (25 mg kg^−1) with different classical AEDs were quantified by the step-through passive avoidance task of Venault et al. ([1986]). AEDs were administered at doses corresponding to their ED50 values from the MES test. Each animal received an AED either alone or in combination either with modafinil, sulfone, and acid metabolites or with GBR 12909 on the first day before training. The time before commencement of the training session (after drug administration) in the step-through passive avoidance task was identical to that for the MES test. Subsequently, the animals were placed in an illuminated box (10 × 13 × 15 cm) connected to a larger dark box (25 × 20 × 15 cm) equipped with an electric grid floor. Entrance of the animals to the dark box was punished by an adequate electric footshock (0.6 mA for 2 s). […] On the following day (24 h later), the pretrained animals were placed again into the illuminated box and observed for up to 180 s. Mice that avoided the dark compartment for 180 s were considered as having remembered the task. The time the mice took to enter the dark box was noted, and the median latencies (retention times) with 25th and 75th percentiles were calculated.

[3] = test system: MES-induced seizures in mice; design: method as in Chatterjie et al. [2004]; conditions: 300 mg kg^−1 i.p., ref Chatterjie et al. [2004], cited from earlier work; for Protection against MES-induced seizures: administered alone
[4] = test system: skeletal muscular strength in mice; assay: Grip strength test; type: in vivo, Swiss mice; conditions: mean ± S.E.M.
Procedure: The effects of combinations of modafinil (50 mg kg^−1), sulfone and acid metabolites (50 mg kg^−1), or GBR 12909 (25 mg kg^−1) with different classical AEDs at doses corresponding to their ED50 values from the MES test on skeletal muscular strength in mice were quantified by the grip strength test of Meyer et al. ([1979]). The grip strength apparatus (BioSeb, Chaville, France) comprised a wire grid (8 × 8 cm) connected to an isometric force transducer (dynamometer). The mice were lifted by the tails so that their forepaws could grasp the grid. The mice were then gently pulled backward by the tail until the grid was released. The maximal force exerted by the mouse before losing grip was recorded. The mean of three measurements for each animal was calculated, and subsequently, the mean maximal force of eight animals per group was determined. The muscular strength in mice is expressed in N (newtons) as the means ± S.E.M. of at least eight determinations.

[5] = test system: motor coordination in mice; assay: Chimney test; type: in vivo, Swiss mice; conditions: n = 8 mice/group
Text: The chimney test of Boissier et al. ([1960]) was used to quantify the adverse effect potential of classical AEDs administered in combination with modafinil, its metabolites, or GBR 12909. In this test, the animals had to climb backwards up a plastic tube (3-cm inner diameter, 30 cm long), and impairment of motor performance was indicated by the inability of the mice to climb backward up the transparent tube within 60 s.

[6] = test system: MES-induced seizures in mice; assay: Maximal electroshock seizure (MES) test, AEDs alone and in combination; type: in vivo, Swiss mice; conditions: AED + vehicle (alone), i.p., 25 mA, ± S.E.M.
Procedure: The stimulus duration was 0.2 s.
These parameters of stimulation (maximal electroshock) typically result in all mice responding with tonic hind limb extension immediately after stimulation. The AEDs administered alone and their combination with modafinil, its metabolites, or GBR 12909 were tested for their ability to increase the number of animals not responding with tonus (i.e., protected from tonic hind limb extension) after stimulation. […] After constructing a dose-effect curve (i.e., dose in mg kg^−1 vs percentage of mice protected), the protective median effective dose (ED50) value of the AED tested was calculated according to a log-probit method by Litchfield and Wilcoxon ([1949]). […] Modafinil, its two metabolites, and GBR 12909 were tested for their ability to affect the anticonvulsive potency of AEDs.

[7] = Total brain antiepileptic drug concentrations (fluorescence polarization immunoassay); conditions: AED + vehicle, mean ± S.E.M., n = 8
Procedure: The whole brains of mice were removed from the skulls, weighed, harvested, and homogenized using Abbott buffer (1:2 weight/volume; Abbott Laboratories, North Chicago, IL, USA) in an Ultra-Turrax T8 homogenizer. The homogenates were then centrifuged at 10,000 g for 10 min, and the supernatant samples of 100 μl were collected and then analyzed for AED content. Total brain concentrations of CBZ, PB, PHT, and VPA were measured by a fluorescence polarization immunoassay using an analyzer (Abbott TDx) and manufacturer-supplied reagent kits (Abbott Laboratories, North Chicago, IL, USA). Total brain AED concentrations are expressed in μg g^−1 of wet brain tissue as means ± standard error of the mean (S.E.M.) of at least eight separate brain preparations.

[8] = test system: locomotor activation in mice; design: method as in Paterson et al. [2010]; conditions: ref Paterson et al. [2010]; cited from earlier work
[9] = test system: electroconvulsions in mice; design: method as in Chen et al. [2007]; conditions: ref Chen et al. [2007], cited from earlier work
[10] = test system: CYP2C9; conditions: human hepatocytes; ref Robertson and Hellriegel [2003]; cited from earlier work
[11] = test system: CYP3A4/5; conditions: human liver microsomes; ref Robertson and Hellriegel [2003]; cited from earlier work
[12] = compound alone 50 mg kg^−1 i.p. + vehicle
[13] = control of GBR series (Table 5)
[14] = control of MOD, SULF and ACID series (Tables 2-4)
[15] = i.p.: CBZ 4.3, PB 13.0, PHT 5.4, VPA 245.3 mg kg^−1 (control of MOD)
[16] = i.p.: CBZ 5.7, PB 14.0, PHT 6.0, VPA 226.4 mg kg^−1 (control of SULF)
[17] = i.p.: CBZ 6.4, PB 14.4, PHT 6.3, VPA 241.6 mg kg^−1 (control of ACID)
[18] = i.p.: CBZ 11.2, PB 15.4, PHT 7.0, VPA 211.4 mg kg^−1 (control of GBR)
[19] = GBR alone 25 mg kg^−1 i.p. + vehicle

SMILES | TI (percentage of threshold increase over vehicle control) ([1]; 12.5 mg kg^−1 i.p.) [%] | TI (percentage of threshold increase over vehicle control) ([1]; 25 mg kg^−1 i.p.) [%] | TI (percentage of threshold increase over vehicle control) ([1]; 50 mg kg^−1 i.p.) [%] | TI (percentage of threshold increase over vehicle control) ([1]; 75 mg kg^−1 i.p.) [%] | TID20 (dose that increases threshold by 20 %) [1] [mg/kg] | Retention time [2, 12] | Grip strength [4, 12] [N] | Motor coordination impairment (number of animals showing impairment in the chimney test) [5, 12] | ED50 of the AED (protecting 50 % of animals against MES-induced hind limb extension) [6, 13] [mg/kg] | ED50 of the AED (protecting 50 % of animals against MES-induced hind limb extension) [6, 14] [mg/kg] | Brain concentration of the AED [7, 15] | Brain concentration of the AED [7, 16] | Brain concentration of the AED [7, 17] | Brain concentration of the AED [7, 18] | also measured
O=C(O)CSC(c1ccccc1)c1ccccc1 [ACID, diphenylmethylthioacetic acid] | 12.83 | 22.32 | 34.80 | 57.82 | 23.47 | 180 (133.5; 180) s | 0.961 ± 0.050 | 0/8 | – | – | – | – | – | – | Toxicity at the dose tested in the MES test [3]: toxic
NC(=O)N1c2ccccc2C=Cc2ccccc21 [CBZ, carbamazepine] | – | – | – | – | – | – | – | – | 15.53 ± 1.04 | 11.23 ± 1.20 | 2.41 ± 0.48 μg g^−1 of wet brain tissue | 3.76 ± 0.35 μg g^−1 of wet brain tissue | 4.46 ± 0.31 μg g^−1 of wet brain tissue | 6.66 ± 0.42 μg g^−1 of wet brain tissue | –
Fc1ccc(C(OCCN2CCN(CCCc3ccccc3)CC2)c2ccc(F)cc2)cc1 [GBR] | 19.18 | 25.67 | 44.53 | – | 16.37 | – | – | – | – | – | – | – | – | – | TI (percentage of threshold increase over vehicle control) ([1]; 6.25 mg kg^−1 i.p.): 11.25%; Retention time [2, 19]: 180 (133.5; 180) s; Dose eliciting equivalent locomotor activation [8]: 15 mg/kg; Grip strength [4, 19]: 0.937 ± 0.042 N; Motor coordination impairment (number of animals showing impairment in the chimney test) [5, 19]: 1/8
NC(=O)C[S+]([O-])C(c1ccccc1)c1ccccc1 (stereo not shown) [MOD, diphenylmethylsulfinylacetamide] | −2.78 | 2.78 | 22.88 | 35.46 | 49.12 | 180 (123.5; 180) s | 0.908 ± 0.053 | 0/8 | – | – | – | – | – | – | Mice protected against electroconvulsions ([9]; 22.5 mg kg^−1 i.p.): 50%; Mice protected against electroconvulsions ([9]; 45 mg kg^−1 i.p.): 70%; Mice protected against electroconvulsions ([9]; 90 mg kg^−1 i.p.): 90%; Mice protected against electroconvulsions ([9]; 180 mg kg^−1 i.p.): 70%; Inhibition of CYP2C9 [10]: inhibit; Protection against MES-induced seizures [3]: 100%; Dose eliciting equivalent locomotor activation [8]: 150 mg/kg; Inhibition of CYP3A4/5 [11]: weak inhibition
CCC1(c2ccccc2)C(=O)NC(=O)NC1=O [PB, phenobarbital] | – | – | – | – | – | – | – | – | 26.90 ± 2.15 | 20.80 ± 3.12 | 23.56 ± 1.10 μg g^−1 of wet brain tissue | 23.71 ± 0.86 μg g^−1 of wet brain tissue | 25.46 ± 0.84 μg g^−1 of wet brain tissue | 24.18 ± 0.70 μg g^−1 of wet brain tissue | –
O=C1NC(=O)C(c2ccccc2)(c2ccccc2)N1 [PHT, phenytoin] | – | – | – | – | – | – | – | – | 12.10 ± 1.20 | 11.00 ± 0.93 | 1.39 ± 0.20 μg g^−1 of wet brain tissue | 1.65 ± 0.19 μg g^−1 of wet brain tissue | 1.70 ± 0.15 μg g^−1 of wet brain tissue | 3.22 ± 0.30 μg g^−1 of wet brain tissue | –
NC(=O)CS(=O)(=O)C(c1ccccc1)c1ccccc1 [SULF, diphenylmethylsufonylacetamide] | 14.24 | 21.62 | 32.34 | 58.88 | 23.57 | 180 (180; 180) s | 0.957 ± 0.058 | 0/8 | – | – | – | – | – | – | Protection against MES-induced seizures [3]: 50%
CCCC(CCC)C(=O)O [VPA, valproate] | – | – | – | – | – | – | – | – | 286.7 ± 20.11 | 328.6 ± 13.17 | 299.73 ± 15.09 μg g^−1 of wet brain tissue | 276.30 ± 11.55 μg g^−1 of wet brain tissue | 346.98 ± 16.10 μg g^−1 of wet brain tissue | 173.66 ± 10.36 μg g^−1 of wet brain tissue | –
